In ChEMBL document CHEMBL1201862, “PubChem BioAssay data set” (2004):
Active and inactive are the calls of the source.

What was measured:
Steroidogenic factor 1 = Steroidogenic factor 1 (Homo sapiens, UniProt Q13285); assay: Counterscreen for inverse agonists of the liver receptor homolog-1 (LRH-1; NR5A2): Luminescence-based cell-based high throughput dose response assay to identify inverse agonists of the Steroidogenic Factor 1 Nuclear Receptor (SF1; NR5A1).; type: functional
[1] = StAR promoter reporter inhibition counter-screen, dose response, counter-screen for LRH-1 inverse agonist project, cell-based, luminescence, luciferase reporter (AID 651969); type: functional
[2] = molecular target: Nuclear receptor subfamily 5 group A member 2 (Homo sapiens, UniProt O00482); type: functional, cell-based;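 also: HEK293T cells transfected with LRH-1 and a StAR promoter luciferase reporter; potency for inhibitors that lower LRH-1 driven reporter light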
[3] = ADAM10 protease inhibitors, dose response, selectivity assay for ADAM17 exosite inhibitor project, biochemical, FRET peptide substrate, recombinant human ADAM10 (AID 743259);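 also: ADAM10 enzyme cleaving a FRET peptide substrate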
[4] = molecular target: Disintegrin and metalloproteinase domain-containing protein 17 (Homo sapiens, UniProt P78536); assay: exosite inhibitors of ADAM17, dose response, biochemical (AID 743260)
Paired box protein Pax-8 = Paired box protein Pax-8 (Homo sapiens, UniProt Q06710); assay: inhibitors of PAX8-driven TPO luciferase reporter, dose response, RMG-I cells, cherry-pick (AID 687027); type: functional, cell-based;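 also: luciferase reporter driven by Pax8 target thyroperoxidase promoter measured by SteadyGlo luminescence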
[5] = cytotoxicity in OVCAR8 ovarian cancer cells, dose response, PAX8 project, cell-based, plate reader, dry powder samples (AID 743197); type: functional; details: OVCAR-8
[6] = NIH:OVCAR-3 ovarian cancer cell cytotoxicity, dose response, PAX8 inhibitor project, plate reader, dry powder samples (AID 743044); type: functional, cell-based
[7] = molecular target: T1, Microphthalmia-associated transcription factor (Homo sapiens, UniProt O75030); assay: TRPM1 promoter luciferase signal decrease, dose response, MITF inhibitor project, cell-based, SK-MEL-5, cherry-picked, set 3 (AID 493073); type: functional
T1 sequence (O75030 whole entry): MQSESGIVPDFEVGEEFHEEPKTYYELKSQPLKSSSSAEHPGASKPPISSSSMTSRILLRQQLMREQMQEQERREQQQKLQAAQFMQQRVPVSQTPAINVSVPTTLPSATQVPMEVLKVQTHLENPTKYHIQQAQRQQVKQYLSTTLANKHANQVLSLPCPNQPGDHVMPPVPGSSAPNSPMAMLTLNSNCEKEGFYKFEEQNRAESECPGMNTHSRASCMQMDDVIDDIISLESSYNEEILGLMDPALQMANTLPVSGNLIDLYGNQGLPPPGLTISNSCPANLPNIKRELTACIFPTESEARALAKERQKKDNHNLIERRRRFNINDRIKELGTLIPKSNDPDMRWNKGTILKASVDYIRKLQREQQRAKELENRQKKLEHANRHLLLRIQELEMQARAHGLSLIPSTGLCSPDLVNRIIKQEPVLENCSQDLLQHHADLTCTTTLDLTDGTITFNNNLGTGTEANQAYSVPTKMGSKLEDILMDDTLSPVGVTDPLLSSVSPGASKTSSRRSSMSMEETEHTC

[8] = Fluorescence-based cell-based high throughput dose response assay for inhibitors of the interaction of nucleotide-binding oligomerization domain containing 2 (NOD2) and the receptor-interacting serine-threonine kinase 2 (RIPK2).; type: functional; details: Homo sapiens
Large T antigen = Large T antigen (Simian virus 40, UniProt P03070); type: functional, Betapolyomavirus macacae;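 also: Confirmatory-stage PubChem screen for compounds that inhibit SV40 T antigen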
[9] = inhibitors of clade B AD8 Env fusion, dose response, cell-based, cherry-pick (AID 652062); type: functional;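 also: luciferase signal from cell-cell fusion driven by HIV-1 clade B AD8 Env; potency is for inhibitors of fusion seen as a drop in luminescence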
[10] = off-target signal loss in HeLa-CEM21 co-culture – HeLa F-luc CTL cells, cherry-picked, counter-screen for HIV-1 Env fusion inhibitor project, dose response (AID 652040); type: functional, cell-based;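 also: potency for signal decrease marking cytotoxic or nonspecific inhibition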
[11] = CEM21 lymphoblast cell cytotoxicity, dose response, cytotoxicity control for viral fusion inhibitor project, CellTiter-Glo luminescence, cherry-picked (AID 652042); type: functional, cell-based;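 also: potency for signal decrease meaning cytotoxicity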
[12] = inhibitors of HIV Env-driven cell fusion, dose response, cherry-pick (AID 652057); type: functional, cell-based
[13] = ZM109 Env clade C HIV-1 fusion inhibitors, dose response, HeLa effector, CEM target cells, luciferase, cherry-pick (AID 652058); type: functional, cell-based
Galanin receptor type 3 = molecular target: T2, Galanin receptor type 3 (Homo sapiens, UniProt O60755); assay: Fluorescence-based cell-based primary high throughput dose response assay to identify antagonists of the Galanin Receptor 3 (GalR3).; type: functional
T2 sequence (O60755 whole entry): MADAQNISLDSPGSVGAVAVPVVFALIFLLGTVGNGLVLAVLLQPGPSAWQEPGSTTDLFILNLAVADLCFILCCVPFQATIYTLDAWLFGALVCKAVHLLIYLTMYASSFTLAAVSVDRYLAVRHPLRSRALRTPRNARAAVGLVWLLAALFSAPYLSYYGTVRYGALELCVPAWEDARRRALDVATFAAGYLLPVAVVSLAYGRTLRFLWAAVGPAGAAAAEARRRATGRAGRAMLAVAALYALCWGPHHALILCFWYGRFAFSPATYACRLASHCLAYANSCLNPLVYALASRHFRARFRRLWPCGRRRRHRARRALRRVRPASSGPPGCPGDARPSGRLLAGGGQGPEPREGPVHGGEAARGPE

cells = type: functional, cell-based; details: HEK-CNG
[14] = HeLa cell cytotoxicity, dose response, cytotoxicity control for MgcRacGAP inhibitor project (AID 624300); type: functional
[15] = tested on: Streptococcus sp. 'group A'; assay: growth inhibition of control SK(-) GAS strain, dose response, counter-screen for streptokinase expression inhibitor project, luminescence, kanamycin, BacTiterGlo, confirmation (AID 1900); type: functional, organism-based
[16] = molecular target: T3, Corticotropin-releasing factor receptor 2/Corticotropin-releasing factor-binding protein (Homo sapiens, UniProt P24387+Q13324); assay: Dose Response confirmation of uHTS hits for small molecule antagonists of the CRF-binding protein and CRF-R2 receptor complex.; type: functional; details: read-out: IC50_Mean
T3 sequence (Q13324 whole entry): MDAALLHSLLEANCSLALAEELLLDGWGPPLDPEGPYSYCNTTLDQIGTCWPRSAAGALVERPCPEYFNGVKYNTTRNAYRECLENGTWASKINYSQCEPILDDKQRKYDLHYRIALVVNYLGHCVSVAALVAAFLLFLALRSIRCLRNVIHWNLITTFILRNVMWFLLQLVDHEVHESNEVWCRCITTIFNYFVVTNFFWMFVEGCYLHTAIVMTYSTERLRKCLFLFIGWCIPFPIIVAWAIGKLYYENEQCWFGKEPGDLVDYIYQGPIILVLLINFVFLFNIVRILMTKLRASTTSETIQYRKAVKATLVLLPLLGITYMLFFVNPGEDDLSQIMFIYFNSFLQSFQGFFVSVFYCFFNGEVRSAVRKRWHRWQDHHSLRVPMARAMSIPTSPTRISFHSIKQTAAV
T3 sequence (P24387 whole entry): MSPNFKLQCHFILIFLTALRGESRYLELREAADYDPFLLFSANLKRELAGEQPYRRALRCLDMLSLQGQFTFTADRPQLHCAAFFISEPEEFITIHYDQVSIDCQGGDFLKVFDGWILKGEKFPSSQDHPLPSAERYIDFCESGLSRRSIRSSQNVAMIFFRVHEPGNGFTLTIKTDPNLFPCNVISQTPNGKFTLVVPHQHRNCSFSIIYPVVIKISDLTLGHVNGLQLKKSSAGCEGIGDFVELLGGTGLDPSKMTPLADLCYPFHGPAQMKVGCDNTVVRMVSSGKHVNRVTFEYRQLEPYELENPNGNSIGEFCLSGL

[17] = molecular target: T3, Corticotropin-releasing factor receptor 2/Corticotropin-releasing factor-binding protein; assay: activators of CRF receptor 2 with binding protein – uHTS hits, confirmation (AID 602473); type: functional; details: read-out: EC50_Mean
Streptococcus = assay: Group A Streptococcus viability loss, dose response, counter-screen for streptokinase expression inhibitor project, luminescence, BacTiterGlo (AID 1915); type: functional, organism-based;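 also: potency for reduction of bacterial viability or growth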
[18] = CRF-BP/CRF-R2 complex antagonists, dose response, cell-based, uHTS hits, 384-well (AID 651639); type: functional, Homo sapiens; details: read-out: IC50_Mean
[19] = HEK293 cell cytotoxicity, dose response, cytotoxicity control, plate reader, cherry-picked samples (AID 743446); type: functional, cell-based
[20] = HepG2 cell cytotoxicity, dose response, cytotoxicity control, plate reader, cherry-pick, antagonist series (AID 743416); type: functional, cell-based
[21] = LGR2 antagonists, dose response, cell-based, HEK293, CRE-luciferase reporter, cherry pick, set 2 (AID 743343); type: functional;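 also: transfected cells were stimulated with diluted bursicon conditioned medium after compound addition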
[22] = MC4R antagonists, dose response, counter-screen for LGR2 antagonist project, cell-based, plate reader, cherry pick (AID 743444); type: functional;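 also: transfected HEK 293 cells stimulated with alpha-MSH peptide; potency of inhibitors of the alpha-MSH evoked signal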
[23] = A549 cell cytotoxicity, dose response, cytotoxicity control, plate reader, cherry-pick, antagonist series (AID 743412); type: functional, cell-based
Leucine aminopeptidase = molecular target: T4, Leucine aminopeptidase (Plasmodium falciparum 3D7, UniProt Q8IL11); assay: P. falciparum M17LAP inhibitors, primary screen, biochemical, fluorogenic H-Leu-NHMec substrate, 1536-well (AID 1619); type: functional
T4 sequence (Q8IL11 whole entry): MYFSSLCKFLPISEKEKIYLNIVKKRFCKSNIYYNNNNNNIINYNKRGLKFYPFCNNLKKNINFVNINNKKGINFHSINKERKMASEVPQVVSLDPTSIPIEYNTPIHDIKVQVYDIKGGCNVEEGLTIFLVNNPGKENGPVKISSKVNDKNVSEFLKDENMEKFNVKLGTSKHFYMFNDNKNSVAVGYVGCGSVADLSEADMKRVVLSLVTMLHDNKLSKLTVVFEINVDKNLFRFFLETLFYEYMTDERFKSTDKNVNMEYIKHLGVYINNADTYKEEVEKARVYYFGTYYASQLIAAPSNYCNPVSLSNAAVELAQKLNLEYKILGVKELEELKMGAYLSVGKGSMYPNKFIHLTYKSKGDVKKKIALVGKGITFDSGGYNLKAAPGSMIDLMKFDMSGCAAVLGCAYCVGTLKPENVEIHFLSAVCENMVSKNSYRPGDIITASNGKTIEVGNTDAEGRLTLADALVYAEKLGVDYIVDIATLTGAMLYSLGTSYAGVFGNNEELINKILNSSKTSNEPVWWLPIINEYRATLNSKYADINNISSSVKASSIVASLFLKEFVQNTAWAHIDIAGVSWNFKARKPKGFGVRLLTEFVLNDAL

Sequence of Steroidogenic factor 1 (Q13285 whole entry): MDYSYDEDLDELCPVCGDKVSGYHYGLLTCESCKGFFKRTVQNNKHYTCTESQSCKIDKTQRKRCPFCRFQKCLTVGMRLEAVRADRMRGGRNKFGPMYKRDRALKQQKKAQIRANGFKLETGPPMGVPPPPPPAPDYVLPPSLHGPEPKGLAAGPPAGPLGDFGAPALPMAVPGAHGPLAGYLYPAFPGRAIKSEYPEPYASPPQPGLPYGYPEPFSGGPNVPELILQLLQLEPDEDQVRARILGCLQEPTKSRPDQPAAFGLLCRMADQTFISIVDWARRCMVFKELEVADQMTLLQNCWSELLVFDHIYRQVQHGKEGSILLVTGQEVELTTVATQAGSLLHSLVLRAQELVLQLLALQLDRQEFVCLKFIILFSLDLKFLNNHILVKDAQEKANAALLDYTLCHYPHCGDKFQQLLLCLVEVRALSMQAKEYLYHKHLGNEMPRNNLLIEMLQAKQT
Sequence of Nuclear receptor subfamily 5 group A member 2 (O00482 whole entry): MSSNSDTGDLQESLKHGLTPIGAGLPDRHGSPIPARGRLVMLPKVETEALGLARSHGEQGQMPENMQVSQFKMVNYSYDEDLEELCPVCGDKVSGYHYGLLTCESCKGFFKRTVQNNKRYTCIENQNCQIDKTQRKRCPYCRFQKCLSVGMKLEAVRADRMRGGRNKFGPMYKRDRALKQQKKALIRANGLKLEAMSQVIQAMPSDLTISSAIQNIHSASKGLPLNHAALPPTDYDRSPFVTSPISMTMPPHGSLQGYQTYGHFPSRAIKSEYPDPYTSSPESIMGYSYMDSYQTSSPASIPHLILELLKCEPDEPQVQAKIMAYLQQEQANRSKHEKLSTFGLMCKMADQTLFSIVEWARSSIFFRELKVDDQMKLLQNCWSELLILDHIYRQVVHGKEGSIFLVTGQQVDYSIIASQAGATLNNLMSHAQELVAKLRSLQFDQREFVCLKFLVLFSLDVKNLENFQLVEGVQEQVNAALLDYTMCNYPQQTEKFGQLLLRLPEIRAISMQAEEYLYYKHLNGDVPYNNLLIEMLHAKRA
Sequence of Disintegrin and metalloproteinase domain-containing protein 17 (P78536 whole entry, the tested form may be a part): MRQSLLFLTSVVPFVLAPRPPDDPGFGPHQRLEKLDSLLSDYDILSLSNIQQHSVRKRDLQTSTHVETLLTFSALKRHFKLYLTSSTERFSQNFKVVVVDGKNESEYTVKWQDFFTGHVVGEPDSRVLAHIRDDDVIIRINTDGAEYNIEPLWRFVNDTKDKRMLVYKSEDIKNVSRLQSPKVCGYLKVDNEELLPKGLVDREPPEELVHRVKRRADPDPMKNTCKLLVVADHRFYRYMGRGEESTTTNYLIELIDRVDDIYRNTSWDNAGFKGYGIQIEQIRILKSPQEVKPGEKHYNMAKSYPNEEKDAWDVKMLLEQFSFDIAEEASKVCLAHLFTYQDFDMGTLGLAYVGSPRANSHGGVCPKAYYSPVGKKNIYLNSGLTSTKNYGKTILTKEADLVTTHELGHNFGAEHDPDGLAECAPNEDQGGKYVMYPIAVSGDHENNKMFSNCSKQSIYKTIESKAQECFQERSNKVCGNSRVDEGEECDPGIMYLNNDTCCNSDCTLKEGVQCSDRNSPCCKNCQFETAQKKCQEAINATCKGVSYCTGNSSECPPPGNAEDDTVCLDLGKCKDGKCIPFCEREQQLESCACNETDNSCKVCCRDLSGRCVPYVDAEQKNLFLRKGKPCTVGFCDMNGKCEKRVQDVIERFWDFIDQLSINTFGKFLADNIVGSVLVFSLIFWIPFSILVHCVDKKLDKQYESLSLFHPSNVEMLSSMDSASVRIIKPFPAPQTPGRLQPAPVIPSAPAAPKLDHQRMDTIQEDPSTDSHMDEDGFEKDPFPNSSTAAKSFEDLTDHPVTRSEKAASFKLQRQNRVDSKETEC
Sequence of Large T antigen (P03070 whole entry, the tested form may be a part): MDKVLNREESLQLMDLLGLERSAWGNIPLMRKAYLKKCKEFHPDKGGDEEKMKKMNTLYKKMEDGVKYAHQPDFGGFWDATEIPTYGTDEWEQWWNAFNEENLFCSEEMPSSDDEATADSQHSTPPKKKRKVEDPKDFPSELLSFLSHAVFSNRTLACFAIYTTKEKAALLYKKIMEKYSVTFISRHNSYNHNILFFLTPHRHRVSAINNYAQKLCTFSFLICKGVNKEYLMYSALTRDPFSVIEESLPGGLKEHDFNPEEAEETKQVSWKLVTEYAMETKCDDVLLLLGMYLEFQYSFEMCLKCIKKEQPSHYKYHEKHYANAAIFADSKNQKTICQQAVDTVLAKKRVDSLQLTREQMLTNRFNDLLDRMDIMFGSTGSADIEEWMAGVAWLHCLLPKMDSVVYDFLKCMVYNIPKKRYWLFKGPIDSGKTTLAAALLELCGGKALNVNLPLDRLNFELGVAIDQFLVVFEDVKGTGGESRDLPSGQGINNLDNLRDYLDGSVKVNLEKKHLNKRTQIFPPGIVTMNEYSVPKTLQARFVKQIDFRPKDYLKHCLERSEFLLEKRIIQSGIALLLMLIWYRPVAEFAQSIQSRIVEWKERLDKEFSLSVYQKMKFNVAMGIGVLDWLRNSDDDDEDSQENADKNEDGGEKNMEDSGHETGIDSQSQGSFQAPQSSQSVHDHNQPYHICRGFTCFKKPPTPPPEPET
Sequence of Paired box protein Pax-8 (Q06710 whole entry): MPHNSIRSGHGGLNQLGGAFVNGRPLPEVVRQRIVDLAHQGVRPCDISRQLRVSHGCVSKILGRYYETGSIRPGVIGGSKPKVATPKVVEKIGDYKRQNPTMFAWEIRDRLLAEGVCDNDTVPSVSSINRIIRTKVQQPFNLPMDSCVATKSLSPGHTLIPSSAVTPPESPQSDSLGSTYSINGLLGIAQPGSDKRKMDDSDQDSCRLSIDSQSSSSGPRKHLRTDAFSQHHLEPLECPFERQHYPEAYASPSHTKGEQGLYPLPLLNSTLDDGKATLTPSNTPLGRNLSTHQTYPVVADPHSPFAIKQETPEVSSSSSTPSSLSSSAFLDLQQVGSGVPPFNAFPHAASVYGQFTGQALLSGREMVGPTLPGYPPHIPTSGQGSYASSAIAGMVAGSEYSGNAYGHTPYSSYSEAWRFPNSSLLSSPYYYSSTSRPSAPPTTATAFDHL

## Cc1ccc(-c2nn3c(C)nnc3s2)cc1NC(=O)c1ccco1
Steroidogenic factor 1
  IC50: 8.56 µM (active)
[1]
  IC50: 35.9 µM (inactive)
[2]
  IC50: 18.3 µM (inactive)

## CCOC(=O)C1=C(C(=O)OCC)C2N(Cc3ccc(C#N)cc3)c3ccccc3[C@@]23C[C@@H](C(=O)OC)N(S(=O)(=O)c2ccc(OC)cc2)C3=N1 (some centres not stated)
[3]
  IC50: 15.4 µM (inactive)
[4]
  IC50: > 69.5 µM (inactive)

## C[C@H]1CCCCO[C@H](CN(C)C(=O)C2CCCCC2)[C@@H](C)CN([C@@H](C)CO)C(=O)c2cc(NS(=O)(=O)c3ccc(Cl)cc3)ccc2O1
Paired box protein Pax-8
  AC50: 11.5 µM (active)
[5]
  AC50: > 70 µM (inactive)
[6]
  AC50: 33.9 µM (active)

## O=[N+]([O-])/C=C\c1ccc(N2CCOCC2)cc1
[7]
  AC50: 13.6 µM (active)
[8]
  IC50: 4.32 µM (active)
Large T antigen
  IC50: > 100 µM (active)

## Cc1ccccc1S(=O)(=O)N(C)C[C@@H]1OCc2ccccc2-c2c(n(C)c3ccccc23)C(=O)N([C@H](C)CO)C[C@@H]1C
[9]
  AC50: 3.16 µM (active)
[10]
  AC50: 1.66 µM (active)
[11]
  AC50: 31.6 µM (active)
[12]
  AC50: 1.37 µM (active)
[13]
  AC50: 1.75 µM (active)

## O=C(Nc1ccc(Oc2ccccc2)cc1)c1csc(COCCO)n1
Galanin receptor type 3
  IC50: 1.39 µM (active)
cells
  EC50: > 29.9 µM (inactive)

## N=C(NOC(=O)N1c2ccccc2Sc2ccccc21)c1ccc(Br)cc1
[14]
  CC50: 63.6 µM (active)

## O=[N+]([O-])c1ccc(-c2cc(O)n3nc(-c4ccc(F)cc4)cc3n2)cc1
[15]
  EC50: 4.2 µM (active)
[16]
  IC50: 27.4 µM (active)
[17]
  EC50: > 53 µM (inactive)
Streptococcus
  EC50: 6.44 µM (active)
[18]
  IC50: 12.9 µM (active)

## O=C(NC1CCCCC1)c1[nH]nc2c1CCCCC2
[9]
  AC50: 7.38 µM (active)
[10]
  AC50: 13.8 µM (active)
[11]
  AC50: 29.7 µM (active)
[19]
  AC50: > 52 µM (inactive)
[20]
  AC50: > 52 µM (inactive)
[21]
  AC50: 3.2 µM (active)
[12]
  AC50: 6.09 µM (active)
[13]
  AC50: 16.3 µM (active)
[22]
  AC50: 2.24 µM (active)
[23]
  AC50: 37.1 µM (active)

## CCc1c(C)nc(SCC(=O)Nc2ccc3c(c2)OCCO3)[nH]c1=O
Steroidogenic factor 1
  IC50: 0.599 µM (active)
Leucine aminopeptidase
  IC50: 10.2 µM (active)
[2]
  IC50: 1.54 µM (active)
